PMC10101059, “Rational Design of Stapled Antimicrobial Peptides to Enhance Stability and In Vivo Potency against Polymicrobial Sepsis” (Microbiology Spectrum, 2023)
In brackets after ≈: the same amount, converted by molar mass. Like-named read-outs stand apart in the source and are kept apart here. Bridge positions count the residues as written; N and C are the ends. Square brackets hold non-standard residues; d marks the D form. Peptide text beside a SMILES is read from it. R5 = C=CCCC[C@@](C)(N)C(=O)O

What was measured:
[1] = test system: A. baumannii; test: Serial passage (induced resistance) assay; type: cell-based, Acinetobacter baumannii; conditions: after serial passage for 15 cycles
Description: The experimental procedure was performed according to the MIC protocol for A. baumannii described above. Subsequently, bacterial samples from sub-MIC wells were passaged, and the MIC was estimated again. This process was repeated for 15 cycles, and the change in MIC over […] was reported ([23]).

[2] = test system: E. aerogenes; test: microbe, parasite or virus in culture; type: cell-based, Enterobacter aerogenes; conditions: for MIC: read-out: Single drug treatment MIC; for TP4-3 and meropenem combined MIC: MIC of each agent in combination
[3] = test system: MDR A. baumannii 1702; test: microbe, parasite or virus in culture; type: cell-based, Acinetobacter baumannii; conditions: for MIC: read-out: Single drug treatment MIC; for TP4-3 and meropenem combined MIC: MIC of each agent in combination
Description: (§1) The FICI was measured using a standard checkerboard microdilution assay ([57]). Two-fold dilutions of antibiotics were made across the x axis, and two-fold peptide dilutions were made across the y axis. Next, bacteria were added at 5 × 10^5 CFU/well (A. baumannii), followed by incubation at 37 ± 2°C for 16 to 20 h. FIC indices were calculated according to the following equations: FICI = FIC1 + FIC2; FIC1 = (MIC12 combined)/MIC1; FIC2 = (MIC12 combined)/MIC2. The combined efficacy was estimated as follows: FICI ≤ 0.5, synergistic; 0.5 to 1, additive; 1 to 2, indifferent; ≥2, antagonistic.

[4] = test system: MDR A. baumannii 1019; test: microbe, parasite or virus in culture; type: cell-based, Acinetobacter baumannii; conditions: for MIC: read-out: Single drug treatment MIC; for TP4-3 and meropenem combined MIC: MIC of each agent in combination
Description: as §1

[5] = test system: MDR A. baumannii 2962; test: microbe, parasite or virus in culture; type: cell-based, Acinetobacter baumannii; conditions: for MIC: read-out: Single drug treatment MIC; for TP4-3 and meropenem combined MIC: MIC of each agent in combination
Description: as §1

[6] = test system: MDR A. baumannii 14B001; test: microbe, parasite or virus in culture; type: cell-based, Acinetobacter baumannii; conditions: for MIC: read-out: Single drug treatment MIC; for TP4-3 and meropenem combined MIC: MIC of each agent in combination
Description: as §1

[7] = test system: MDR A. baumannii 2982; test: microbe, parasite or virus in culture; type: cell-based, Acinetobacter baumannii; conditions: for MIC: read-out: Single drug treatment MIC; for TP4-3 and meropenem combined MIC: MIC of each agent in combination
Description: as §1

[8] = test system: MDR A. baumannii 1607; test: microbe, parasite or virus in culture; type: cell-based, Acinetobacter baumannii; conditions: for MIC: read-out: Single drug treatment MIC; for TP4-3 and meropenem combined MIC: MIC of each agent in combination
Description: as §1

[9] = test system: MDR A. baumannii 921; test: microbe, parasite or virus in culture; type: cell-based, Acinetobacter baumannii; conditions: for MIC: read-out: Single drug treatment MIC; for TP4-3 and meropenem combined MIC: MIC of each agent in combination
Description: as §1

[10] = test system: E. coli; test: microbe, parasite or virus in culture; type: cell-based, Escherichia coli; conditions: for MIC: read-out: Single drug treatment MIC; for TP4-3 and meropenem combined MIC: MIC of each agent in combination
[11] = test system: A. baumannii biofilm; test: Biofilm inhibition assay; type: cell-based, Acinetobacter baumannii; conditions: 0.5× to 4× MIC
Description: (i) Biofilm inhibition assay. Fifty μL of 2 × 10^6 CFU/mL A. baumannii bacterial suspension was added to a 96-well plate. Then, 50 μL of peptide/drug (various concentrations) was added, and the plate was incubated for 24 h. The residual solution was removed, and wells were washed, followed by treatment with 100% methanol for 15 min at room temperature. The methanol was then removed, and the wells were allowed to dry at room temperature. Next, the wells were incubated with 100 μL of 0.02% crystal violet for 30 min. After the incubation, the wells were washed with distilled water and dried for an appropriate length of time. Finally, 100 μL of 33% acetic acid was added to the wells for 1 h, followed by reading the absorbance at 595 nm ([55]).

[12] = test system: CLP-induced polymicrobial sepsis in C57BL/6 female mice; test: CLP-induced polymicrobial sepsis model; type: in vivo; conditions: for kidney (BUN, CRE) and liver function (GOT, GPT): 24 h after CLP; for survival: 7 days post-operation, i.p. 30 min after CLP, TP4-3 9 mg/kg, meropenem 10 mg/kg, combination 9 mg/kg TP4-3 and 5 mg/kg meropenem, CLP + saline 12.5%
Description: (i) CLP surgery. Cecal ligation and puncture surgery was performed to induce polymicrobial sepsis according to a previously described method ([37]). Female C57BL/6 mice at 6 to 8 weeks of age (weight = 18 to 22 g) were anesthetized by intraperitoneal administration of Zoletil (50 mg/kg). Then, a 1-cm incision was made at the abdomen to expose the cecum. The CLP procedure was performed with a 23-G needle. […] A sham group was subjected to abdomen incision without CLP and treated with saline by intraperitoneal injection. After the treatments, percent survival was used as a measure of test-candidate efficacy ([37]).
(ii) Estimation of bacterial load, cytokine expression, and toxicity profile after CLP and treatment. […] Blood samples were taken in collection tubes. Peritoneal fluid was collected in a sterilized 1.5-mL centrifuge tube. Organs, including the liver, lung, spleen, and kidney, were harvested, weighed, and placed in 1-mL sterile PBS for homogenization with a tissue lyzer (Tissuelyzer II, Qiagen, Dusseldorf, Germany). The homogenates, blood, and peritoneal fluid were diluted serially and plated on Mueller-Hinton broth agar plates. The plates were incubated at 37°C overnight. Each tissue was evaluated by measuring CFU/g ([37]).
To evaluate kidney and liver function, blood samples (n = 5 per group) were tested for ALT (GPT), AST (GOT), CRE, and BUN using a dry-chemistry analyzer as described above. Mouse serum was extracted to assess (n = 5 per group) expression of cytokines (Thermo Fisher Scientific, Waltham, MA) as a measure of inflammatory response ([37]).

[13] = 24 h, ELISA, compared to saline-treated group
[14] = 72 h compared to 24 h after treatment

C[C@@H](O)[C@H]1C(=O)N2C(C(=O)O)=C(S[C@@H]3CN[C@H](C(=O)N(C)C)C3)[C@H](C)[C@H]12 [Meropenem]
net increase in the MIC [1]: 53 fold | MIC ([2]; Klebsiella aerogenes): 0.39 µM (≈ 0.15 µg/mL) | TP4-3 and meropenem combined MIC ([2]; TP4-3 and M): 0.097 µM | MIC ([3]; Acinetobacter baumannii): 25 to 50 µM | TP4-3 and meropenem combined MIC ([3]; TP4-3 and M): 12.5 µM | MIC ([4]; Acinetobacter baumannii): 50 µM | TP4-3 and meropenem combined MIC ([4]; TP4-3 and M): 6.25 µM | MIC ([5]; Acinetobacter baumannii): 100 µM | TP4-3 and meropenem combined MIC ([5]; TP4-3 and M): 25 µM | MIC ([6]; Acinetobacter baumannii): 800 µM | TP4-3 and meropenem combined MIC ([6]; TP4-3 and M): 400 µM | MIC ([7]; Acinetobacter baumannii): 400 µM | TP4-3 and meropenem combined MIC ([7]; TP4-3 and M): 200 µM | MIC ([8]; Acinetobacter baumannii): 100 µM | TP4-3 and meropenem combined MIC ([8]; TP4-3 and M): 12.5 µM | MIC ([9]; Acinetobacter baumannii): 400 µM | TP4-3 and meropenem combined MIC ([9]; TP4-3 and M): 100 µM | MIC ([10]; Escherichia coli): 3.13 µM (≈ 1.2 µg/mL) | TP4-3 and meropenem combined MIC ([10]; TP4-3 and M): 0.097 µM | inhibition of biofilm (biomass) formation [11]: substantial inhibition of biomass formation | kidney (BUN, CRE) and liver function (GOT, GPT) [12]: poor liver function profiles | survival [12]: 37.5%

CC[C@H](C)[C@H](NC(=O)[C@@H](NC(=O)[C@@H](N)Cc1ccccc1)[C@@H](C)CC)C(=O)N[C@]1(C)CCCC=CCCC[C@](C)(C(=O)NCC(=O)N[C@@H](CC(C)C)C(=O)N[C@@H](Cc2ccccc2)C(=O)N[C@@H](CCCCN)C(=O)N[C@@H](CCCCN)C(=O)N[C@@H](CCCCN)C(=O)N[C@@H](C)C(=O)NCC(=O)N[C@@H](C)C(=O)N[C@]2(C)CCCC=CCCC[C@](C)(C(=O)N[C@H](C(=O)N[C@@H](CCCCN)C(=O)N[C@@H](CCCCN)C(=O)O)[C@@H](C)CC)NC(=O)[C@H](CCCCN)NC(=O)[C@H](CCCCN)NC(=O)[C@H](CCCCN)NC2=O)NC(=O)[C@H](CO)NC(=O)[C@H](CCCCN)NC(=O)[C@H](CCCCN)NC1=O [TP4-3] (H-FII[R5]KKS[R5]GLFKKKAGA[R5]KKK[R5]IKK-OH; staple 4-8, 18-22; N-terminus and C-terminus assumed)
net increase in the MIC [1]: 5 fold | TP4-3 and meropenem combined MIC ([2]; TP4-3 and D): 3.13 µM | TP4-3 and meropenem combined MIC ([2]; TP4-3 and M): 0.78 µM | MIC [2]: 25 µM (≈ 72.3 µg/mL) | MIC ([3]; MDR 1702): 6.25 µM | TP4-3 and meropenem combined MIC ([3]; TP4-3 and D): 3.13 µM | TP4-3 and meropenem combined MIC ([3]; TP4-3 and M): 3.13 µM | MIC ([4]; MDR 1019): 12.5 µM | TP4-3 and meropenem combined MIC ([4]; TP4-3 and D): 3.13 µM | TP4-3 and meropenem combined MIC ([4]; TP4-3 and M): 3.13 µM | MIC ([5]; MDR 2962): 6.25 µM | TP4-3 and meropenem combined MIC ([5]; TP4-3 and D): 3.13 µM | TP4-3 and meropenem combined MIC ([5]; TP4-3 and M): 3.13 µM | MIC ([6]; MDR 14B001): 3.13 µM | TP4-3 and meropenem combined MIC ([6]; TP4-3 and D): 3.13 µM | TP4-3 and meropenem combined MIC ([6]; TP4-3 and M): 0.09 µM | MIC ([7]; MDR 2982): 6.25 µM | TP4-3 and meropenem combined MIC ([7]; TP4-3 and D): 3.13 µM | TP4-3 and meropenem combined MIC ([7]; TP4-3 and M): 3.13 µM | MIC ([8]; MDR 1607): 6.25 µM | TP4-3 and meropenem combined MIC ([8]; TP4-3 and D): 3.13 µM | TP4-3 and meropenem combined MIC ([8]; TP4-3 and M): 3.13 µM | MIC ([9]; MDR 921): 6.25 µM | TP4-3 and meropenem combined MIC ([9]; TP4-3 and D): 3.13 µM | TP4-3 and meropenem combined MIC ([9]; TP4-3 and M): 0.78 µM | TP4-3 and meropenem combined MIC ([10]; TP4-3 and D): 6.25 µM | TP4-3 and meropenem combined MIC ([10]; TP4-3 and M): 0.78 µM | MIC [10]: 25 µM (≈ 72.3 µg/mL) | inhibition of biofilm (biomass) formation [11]: substantial inhibition of biomass formation | serum IL-6 level [12, 13]: lower levels | serum IL-10 level [12, 13]: higher level | serum IL-12 level [12, 13]: no difference | serum IL-18 level [12, 13]: lower levels | serum MCP-1 level [12, 13]: lower levels | serum TNF-α level [12, 13]: lower levels | kidney (BUN, CRE) and liver function (GOT, GPT) [12]: significantly improved | bacterial burden in peritoneal lavage fluid [12, 14]: no significant difference | decrease of bacterial burden, blood [12, 14]: 54% | decrease of bacterial burden, kidney [12, 14]: 51% | decrease of bacterial burden, liver [12, 14]: 61% | decrease of bacterial burden, lung [12, 14]: 51% | decrease of bacterial burden, spleen [12, 14]: 55% | bacterial burdens in the blood, lung, and liver ([12]; 72 h post-treatment, compared to CLP + saline): lower bacterial burdens | survival [12]: 87.5%
